In patent US11168073B2, “3,3-difluoroallylamines or salts thereof and pharmaceutical compositions comprising the same” (YUHAN CORPORATION, priority 2018, dated 2021):
Where a name gives a salt, the structure may show the parent alone. Read-outs that look alike come from different tables or passages of the source.

Columns and labels:
Format in all cases: biochemical
[1] = target: T1, recombinant human DAO (diamine oxidase) (Homo sapiens, UniProt P19801); experiment: Activity evaluation on recombinant human DAO (Amplex Red/HRP-coupled assay, 1 mM putrescine substrate); conditions: read-out: Inhibitory Activity (IC50, nM) DAO
T1 construct: purchased R&D systems
T1 sequence (P19801 20-751): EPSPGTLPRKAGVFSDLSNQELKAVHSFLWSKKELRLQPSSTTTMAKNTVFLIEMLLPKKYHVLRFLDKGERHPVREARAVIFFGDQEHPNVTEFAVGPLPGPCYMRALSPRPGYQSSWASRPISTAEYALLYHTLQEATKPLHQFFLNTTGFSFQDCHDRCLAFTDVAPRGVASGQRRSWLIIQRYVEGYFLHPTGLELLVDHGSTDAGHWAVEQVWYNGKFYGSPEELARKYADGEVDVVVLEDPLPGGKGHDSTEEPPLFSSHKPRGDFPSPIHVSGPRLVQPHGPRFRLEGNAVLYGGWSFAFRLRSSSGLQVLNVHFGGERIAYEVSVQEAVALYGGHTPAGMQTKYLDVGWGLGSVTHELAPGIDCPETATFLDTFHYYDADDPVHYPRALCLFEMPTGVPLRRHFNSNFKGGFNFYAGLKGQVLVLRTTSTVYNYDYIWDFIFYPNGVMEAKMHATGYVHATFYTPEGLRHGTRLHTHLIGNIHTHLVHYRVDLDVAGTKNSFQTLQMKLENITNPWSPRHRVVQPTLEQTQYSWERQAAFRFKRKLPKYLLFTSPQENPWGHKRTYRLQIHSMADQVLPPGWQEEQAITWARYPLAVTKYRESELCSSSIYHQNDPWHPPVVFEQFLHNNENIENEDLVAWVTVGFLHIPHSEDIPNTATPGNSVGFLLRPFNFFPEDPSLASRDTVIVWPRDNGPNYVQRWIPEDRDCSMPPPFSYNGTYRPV
Outline: (§1)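 Enzyme was preincubated with compounds (8-point 1:3 series, final DMSO <1%) 30 min at 37 °C in 50 mM sodium phosphate pH 7.4, then given 200 uM Amplex Red and 1 U/mL HRP with substrate. H2O2-derived resorufin fluorescence (ex 544/em 590 nm) was followed over 1–2 h; IC50 came from 4-parameter logistic fits of signal-rate inhibition versus DMSO control.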

[2] = target: T2, recombinant human MAO-B (monoamine oxidase-B) (Homo sapiens, UniProt P27338); experiment: Activity evaluation on recombinant human MAO-B (Amplex Red/HRP-coupled assay, 1 mM benzylamine substrate); conditions: read-out: Inhibitory Activity (IC50, nM) MAO-B
T2 construct: purchased Sigma-Aldrich
T2 sequence (P27338 1-520): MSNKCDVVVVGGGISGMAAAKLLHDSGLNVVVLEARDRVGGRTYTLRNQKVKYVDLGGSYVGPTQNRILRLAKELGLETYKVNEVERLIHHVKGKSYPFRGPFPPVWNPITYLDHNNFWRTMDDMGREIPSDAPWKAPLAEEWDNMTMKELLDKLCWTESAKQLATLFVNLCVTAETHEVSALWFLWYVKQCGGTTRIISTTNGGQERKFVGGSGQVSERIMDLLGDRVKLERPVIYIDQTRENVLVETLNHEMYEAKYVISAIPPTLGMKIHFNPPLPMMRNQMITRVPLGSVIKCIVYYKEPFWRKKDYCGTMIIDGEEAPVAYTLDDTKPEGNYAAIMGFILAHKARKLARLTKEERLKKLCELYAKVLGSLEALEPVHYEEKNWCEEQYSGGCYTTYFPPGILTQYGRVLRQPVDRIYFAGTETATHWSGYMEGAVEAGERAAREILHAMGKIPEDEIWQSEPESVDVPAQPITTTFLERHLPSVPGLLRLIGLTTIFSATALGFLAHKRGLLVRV
Outline: as §1

[3] = target: T3, recombinant human VAP-1 (Homo sapiens, UniProt Q16853); experiment: Activity evaluation on recombinant human VAP-1 (Amplex Red/HRP-coupled hydrogen peroxide assay, benzylamine substrate); conditions: read-out: Inhibitory Activity (IC50, nM) human VAP-1
T3 construct: purchased R&D systems
T3 sequence (Q16853 1-763): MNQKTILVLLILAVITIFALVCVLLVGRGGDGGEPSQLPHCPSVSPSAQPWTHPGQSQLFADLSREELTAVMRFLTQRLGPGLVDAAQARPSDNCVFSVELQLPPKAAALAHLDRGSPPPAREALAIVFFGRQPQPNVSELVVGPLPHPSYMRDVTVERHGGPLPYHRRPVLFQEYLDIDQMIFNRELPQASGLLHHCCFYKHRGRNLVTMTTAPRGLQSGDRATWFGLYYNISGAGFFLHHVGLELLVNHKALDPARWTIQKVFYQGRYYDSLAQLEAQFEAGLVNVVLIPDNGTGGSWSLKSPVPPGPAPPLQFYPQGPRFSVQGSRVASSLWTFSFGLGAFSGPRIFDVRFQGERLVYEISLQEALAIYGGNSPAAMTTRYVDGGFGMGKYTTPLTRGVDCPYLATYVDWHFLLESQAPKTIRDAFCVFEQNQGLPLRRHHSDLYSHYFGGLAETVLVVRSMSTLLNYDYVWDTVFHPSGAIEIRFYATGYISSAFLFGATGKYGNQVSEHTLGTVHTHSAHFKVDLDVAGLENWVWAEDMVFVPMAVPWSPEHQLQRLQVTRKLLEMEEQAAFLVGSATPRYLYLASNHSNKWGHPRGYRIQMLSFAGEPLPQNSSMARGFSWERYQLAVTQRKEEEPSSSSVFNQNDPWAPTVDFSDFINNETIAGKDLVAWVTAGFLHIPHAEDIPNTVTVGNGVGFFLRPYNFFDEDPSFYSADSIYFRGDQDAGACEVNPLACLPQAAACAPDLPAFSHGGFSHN
Outline: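 Recombinant human VAP-1 in 50 mM sodium phosphate pH 7.4 preincubated 30 min at 37 °C with compound (8-point 1:3 series, <1% DMSO), then 1 mM benzylamine, 200 uM Amplex Red, 1 U/mL HRP added. H2O2-derived resorufin fluorescence (ex 544/em 590) followed 1–2 h; IC50 from four-parameter fit of rate inhibition.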

[4] = target: T4, recombinant human MAO-A (monoamine oxidase-A) (Homo sapiens, UniProt P21397); experiment: Activity evaluation on recombinant human MAO-A (Amplex Red/HRP-coupled assay, 0.5 mM tyramine substrate); conditions: read-out: Inhibitory Activity (IC50, nM) MAO-A
T4 construct: purchased Sigma-Aldrich
T4 sequence (P21397 1-527): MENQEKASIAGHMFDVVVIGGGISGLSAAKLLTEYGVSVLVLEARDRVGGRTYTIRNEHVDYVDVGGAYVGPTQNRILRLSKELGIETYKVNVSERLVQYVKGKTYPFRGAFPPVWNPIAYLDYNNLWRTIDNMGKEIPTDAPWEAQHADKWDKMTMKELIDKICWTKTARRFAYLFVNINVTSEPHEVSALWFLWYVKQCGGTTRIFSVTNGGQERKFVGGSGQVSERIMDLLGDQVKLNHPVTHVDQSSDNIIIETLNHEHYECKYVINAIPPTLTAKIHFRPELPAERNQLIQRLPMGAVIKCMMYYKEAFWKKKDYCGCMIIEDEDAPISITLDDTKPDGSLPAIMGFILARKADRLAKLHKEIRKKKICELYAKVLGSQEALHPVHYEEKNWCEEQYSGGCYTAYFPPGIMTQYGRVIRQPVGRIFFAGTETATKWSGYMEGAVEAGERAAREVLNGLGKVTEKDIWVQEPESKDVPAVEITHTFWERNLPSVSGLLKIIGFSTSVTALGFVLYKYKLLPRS
Outline: as §1

[5] = recombinant human VAP-1, 30 min preincubation at 37° C., 1 mM benzylamine
[6] = recombinant human VAP-1, benzylamine substrate

| Structure (SMILES) | IC50 ([1]; 1 mM putrescine) | IC50 ([2]; 1 mM benzylamine) | IC50 [3, 5] | IC50 ([4]; 0.5 mM tyramine) | IC50 ([1]; 1 mM putrescine substrate) | IC50 ([2]; 1 mM benzylamine substrate) | IC50 [3, 6] | IC50 ([4]; 0.5 mM tyramine substrate) |
| --- | --- | --- | --- | --- | --- | --- | --- | --- |
| NCC(Cn1ncn(CCc2cccs2)c1=O)=C(F)F [Example 172, 2-[2-(aminomethyl)-3,3-difluoro-allyl]-4-[2-(2-thienyl)ethyl]-1,2,4-triazol-3-one Trifluoroacetate] | > 100000 nM | 61000 nM | 13 nM | > 100000 nM |  |  |  |  |
| CS(=O)(=O)c1ccc(-c2ccc(CCn3cnn(CC(CN)=C(F)F)c3=O)s2)cc1 [Example 173, 2-[2-(aminomethyl)-3,3-difluoro-allyl]-4-[2-[5-(4-methylsulfonylphenyl)-2-thienyl]ethyl]-1,2,4-triazol-3-one trifluoroacetate] | 260 nM | 69000 nM | 0.3 nM | > 100000 nM |  |  |  |  |
| NCC(Cn1ncn(CCc2ccc(-c3ccc(N4CCNCC4)cc3)s2)c1=O)=C(F)F [Example 174, 2-[2-(aminomethyl)-3,3-difluoro-allyl]-4-[2-[5-(4-piperazin-1-ylphenyl)-2-thienyl]ethyl]-1,2,4-triazol-3-one Ditrifluoroacetate] | 29 nM | > 100000 nM | 1.3 nM | > 100000 nM |  |  |  |  |
| NCC(Cn1ncn(CCc2ccc(-c3ccc(C(F)(F)F)nc3)s2)c1=O)=C(F)F [Example 175, 2-[2-(aminomethyl)-3,3-difluoro-allyl]-4-[2-[5-[6-(trifluoromethyl)-3-pyridyl]-2-thienyl]ethyl]-1,2,4-triazol-3-one Trifluoroacetate] | 250 nM | 14000 nM | 0.4 nM | > 100000 nM |  |  |  |  |
| CN(C)c1ccc(-c2ccc(CCn3cnn(CC(CN)=C(F)F)c3=O)s2)cn1 [Example 176, 2-[2-(aminomethyl)-3,3-difluoro-allyl]-4-[2-[5-[6-(dimethylamino)-3-pyridyl]-2-thienyl]ethyl]-1,2,4-triazol-3-one Trifluoroacetate] | 1100 nM | > 100000 nM | 0.5 nM | > 100000 nM |  |  |  |  |
| NCC(Cn1ncn(CCc2ccc(-c3ccc4c(c3)OCO4)s2)c1=O)=C(F)F [Example 177, 2-[2-(aminomethyl)-3,3-difluoro-allyl]-4-[2-[5-(1,3-benzodioxol-5-yl)-2-thienyl]ethyl]-1,2,4-triazol-3-one Trifluoroacetate] | 2500 nM | 700 nM | 1.2 nM | > 100000 nM |  |  |  |  |
| Cc1cc(-c2ccc(CCn3cnn(CC(CN)=C(F)F)c3=O)s2)cc2c1NC(=O)CC2 [Example 178, 6-[5-[2-[1-[2-(aminomethyl)-3,3-difluoro-allyl]-5-oxo-1,2,4-triazol-4-yl]ethyl]-2-thienyl]-8-methyl-3,4-dihydro-1H-quinolin-2-one Trifluoroacetate] | 350 nM | > 100000 nM | 0.6 nM | > 100000 nM |  |  |  |  |
| CN1C(=O)CCc2cc(-c3ccc(CCn4cnn(CC(CN)=C(F)F)c4=O)s3)ccc21 [Example 179, 6-[5-[2-[1-[2-(aminomethyl)-3,3-difluoro-allyl]-5-oxo-1,2,4-triazol-4-yl]ethyl]-2-thienyl]-1-methyl-3,4-dihydroquinolin-2-one Trifluoroacetate] | 290 nM | > 100000 nM | 0.3 nM | > 100000 nM |  |  |  |  |

Continued, values first:

| IC50 ([1]; 1 mM putrescine) | IC50 ([2]; 1 mM benzylamine) | IC50 [3, 5] | IC50 ([4]; 0.5 mM tyramine) | IC50 ([1]; 1 mM putrescine substrate) | IC50 ([2]; 1 mM benzylamine substrate) | IC50 [3, 6] | IC50 ([4]; 0.5 mM tyramine substrate) | Structure (SMILES) |
| --- | --- | --- | --- | --- | --- | --- | --- | --- |
| 1900 nM | 61000 nM | 0.6 nM | > 100000 nM |  |  |  |  | CCn1cc(-c2ccc(CCn3cnn(CC(CN)=C(F)F)c3=O)s2)cn1 [Example 180, 2-[2-(aminomethyl)-3,3-difluoro-allyl]-4-[2-[5-(1-ethylpyrazol-4-yl)-2-thienyl]ethyl]-1,2,4-triazol-3-one Trifluoroacetate] |
|  |  |  |  | > 10000 nM | > 100000 nM | 2.3 nM | > 100000 nM | CN(C)C(=O)c1cccc(-c2ccc(Cn3cnn(CC(CN)=C(F)F)c3=O)s2)c1 [Example 181, 3-[5-[[1-[2-(aminomethyl)-3,3-difluoro-allyl]-5-oxo-1,2,4-triazol-4-yl]methyl]-2-thienyl]-N,N-dimethyl-benzamide trifluoroacetate] |
|  |  |  |  | > 100000 nM | > 100000 nM | 0.2 nM | > 100000 nM | CN1Cc2cc(-c3ccc(Cn4cnn(CC(CN)=C(F)F)c4=O)s3)ccc2NC1=O [Example 182, 6-[5-[[1-[2-(aminomethyl)-3,3-difluoro-allyl]-5-oxo-1,2,4-triazol-4-yl]methyl]-2-thienyl]-3-methyl-1,4-dihydroquinazolin-2-one Trifluoroacetate] |
|  |  |  |  | > 100000 nM | 2100 nM | 1.4 nM | > 100000 nM | NCC(Cn1ncn(Cc2ccc(-c3cnn(C(F)F)c3)s2)c1=O)=C(F)F [Example 183, 2-[2-(aminomethyl)-3,3-difluoro-allyl]-4-[[5-[1-(difluoromethyl)pyrazol-4-yl]-2-thienyl]methyl]-1,2,4-triazol-3-one Trifluoroacetate] |
|  |  |  |  | 72000 nM | 26000 nM | 2.6 nM | > 100000 nM | CC(C)n1cc(-c2ccc(Cn3cnn(CC(CN)=C(F)F)c3=O)s2)cn1 [Example 184, 2-[2-(aminomethyl)-3,3-difluoro-allyl]-4-[[5-(1-isopropylpyrazol-4-yl)-2-thienyl]methyl]-1,2,4-triazol-3-one Trifluoroacetate] |
